What was measured:
EGFR WT = biological target: T1, EGFR WT (Homo sapiens, UniProt P00533); test: z-lyte kinase assay, EGFR WT; type: biochemical
T1 construct: purchased Invitrogen

[1] = Body weight change in nude mice xenografted with NCI-H1975 cancer cells; type: in vivo; conditions: for mBWL (maximum body weight loss): oral, one time a day for 10 days, measured on 10th day after administration
Protocol: (§1) . In the test, a tumor in the sixth generation isolated from an individual was cut into a size of 30 mg, and transplanted subcutaneously into right flanks of mice using a 12-gauge trocar. The volume of tumor (V) is calculated from following equation 1 after measuring a long diameter (L) and a short diameter (S) using a vernier caliper twice a week for 18 days of test. All test materials were orally administered one time a day for total 10 days, and the tumor growth inhibition rate (IR: tumor growth inhibition rate (%) calculated based on a vehicle-treated control) and the maximum body weight loss (mBWL: maximum body weight loss calculated based on the body weight just before administration) were calculated using following equations 2 and 3. V=L×S^2/2 <Equation 1>
wherein, RTG is a relative tumor growth, which is the mean tumor volume on a particular day based on […] mean tumor volume. mBWL(%)=(1−(mean body weight on day x/mean body weight just before administration))×100 <Equation 3>
wherein, day x is a day on which the body weight loss is largest during the test.

[2] = test system: HCC827 (EGFR DelE746_A750); test: Inhibition test for growth of cancer cell expressing EGFR (SRB), HCC827; type: cell-based; conditions: Homo sapiens, HCC827, 72 h, HCC827 cells, 72 hours, SRB; read-out: GI50 HCC827 EGFR DelE746_A750;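 note: cells in 96-well plates exposed to tenfold serial dilutions from 100 µM, fixed with trichloroacetic acid, SRB-stained, absorbance read at 540 nm, DMSO under 1%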
[3] = test system: NCI-H1975 (EGFR L858R/T790M); test: Inhibition test for growth of cancer cell expressing EGFR (MTS), NCI-H1975; type: cell-based; conditions: Homo sapiens; NCI-H1975 cells, 48 hours, MTS; read-out: GI50 NCI-H1975 EGFR L858R/T790M
Protocol: A431 cell line was incubated in a high-glucose DMEM (Dulbecco's Modified Eagle's Medium) supplemented with 10% fetal bovine serum (FBS) and 1% penicillin/streptomycin (Gibco BRL), and HCC827 and NCI-H1975 cell lines were incubated in an RPMI medium supplemented with 10% FBS, 1% penicillin/streptomycin and 1% sodium pyruvate.
The cancer cell lines stored in a liquid nitrogen tank were each quickly thawed at 37° C., and centrifuged to remove the medium. The resulting cell pellet was mixed with a culture medium, incubated in a culture flask at 37° C. under 5% CO2 for 2 to 3 days, and the medium was removed. The remaining cells were washed with DPBS (Dulbecco's Phosphate Buffered Saline) and separated from the flask by using Tripsin-EDTA. […] 100 μl of the diluted cell solution was added to each well of a 96-well plate, and incubated at 37° C. under 5% CO2 for 1 day.
In case that the test compound was not soluble in DMSO, 1% HCl was added thereto and treated in a 40° C. water bath for 30 mins until a complete dissolution was attained. The DMSO solution containing test compound was diluted with a culture medium to a final concentration of 100 μM, and then diluted 10 times serially to 10^−6 μM (a final concentration of DMSO was less than 1%).
The medium was removed from each well of the 96-well plate. And then, 100 μl of a test compound solution was added to each well holding the cultured cells, and the plate was incubated at 37° C. under 5% CO2 for 72 hours (except that NCI-H1975 cells were incubated for 48 hours). After removing the medium from the plate, 50 μA of 10% trichloroacetic acid was added to each well, and the plate was kept at 4° C. for 1 hour to fix the cells to the bottom of the plate. The added 10% trichloroacetic acid solution was removed from each well, the plate was dried, 100 μA of an SRB (Sulforhodamine-B) dye solution at a concentration of 0.4% dissolved in 1% acetic acid was added thereto, and the resulting mixture was reacted for 10 mins at room temperature. After removing the dye solution, the plate was washed with water, and well dried. When the dye solution was not effectively removed by water, 1% acetic acid was used. 150 μA of 10 mM trisma base was added to each well, and the absorbance at 540 nm wavelength was determined with a microplate reader.

A431 (EGFR WT) = test: Inhibition test for growth of cancer cell expressing EGFR (SRB), A431; type: cell-based; conditions: Homo sapiens, A-431; A431 cells, 72 hours, SRB; read-out: GI50 A431 EGFR WT;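 note: cells in 96-well plates exposed to tenfold serial dilutions from 100 µM down to 10^−6 µM, DMSO under 1%, SRB staining read as absorbance at 540 nm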
NCI-H1975 cancer cells = test: Anticancer efficacy test in nude mice xenografted with NCI-H1975 cancer cells; type: in vivo; conditions: oral, one time a day for 10 days, measured on 16th day after administration
Protocol: NCI-H1975 cell (lung cancer cell) was purchased from American Type Culture Collection (ATCC). After formation of tumor by subcutaneous injection with 1×10^8 cells/0.3 mL of tumor cell suspension on the back of mice, passages were carried out and tumor in at least third generation was used in the test.
as §1, with “In” for “. In”
wherein, L is a long diameter and S is a short diameter. IR(%)=(1−(RTG of the treatment group of test material)/(RTG of the control group))×100 <Equation 2>

EGFR L858R/T790M = biological target: T2, EGFR L858R/T790M (Homo sapiens, UniProt P00533, L858R/T790M); test: z-lyte kinase assay, EGFR L858R/T790M; type: biochemical
T2 construct: purchased Invitrogen
T2 sequence (P00533 25-1210 T790M/L858R): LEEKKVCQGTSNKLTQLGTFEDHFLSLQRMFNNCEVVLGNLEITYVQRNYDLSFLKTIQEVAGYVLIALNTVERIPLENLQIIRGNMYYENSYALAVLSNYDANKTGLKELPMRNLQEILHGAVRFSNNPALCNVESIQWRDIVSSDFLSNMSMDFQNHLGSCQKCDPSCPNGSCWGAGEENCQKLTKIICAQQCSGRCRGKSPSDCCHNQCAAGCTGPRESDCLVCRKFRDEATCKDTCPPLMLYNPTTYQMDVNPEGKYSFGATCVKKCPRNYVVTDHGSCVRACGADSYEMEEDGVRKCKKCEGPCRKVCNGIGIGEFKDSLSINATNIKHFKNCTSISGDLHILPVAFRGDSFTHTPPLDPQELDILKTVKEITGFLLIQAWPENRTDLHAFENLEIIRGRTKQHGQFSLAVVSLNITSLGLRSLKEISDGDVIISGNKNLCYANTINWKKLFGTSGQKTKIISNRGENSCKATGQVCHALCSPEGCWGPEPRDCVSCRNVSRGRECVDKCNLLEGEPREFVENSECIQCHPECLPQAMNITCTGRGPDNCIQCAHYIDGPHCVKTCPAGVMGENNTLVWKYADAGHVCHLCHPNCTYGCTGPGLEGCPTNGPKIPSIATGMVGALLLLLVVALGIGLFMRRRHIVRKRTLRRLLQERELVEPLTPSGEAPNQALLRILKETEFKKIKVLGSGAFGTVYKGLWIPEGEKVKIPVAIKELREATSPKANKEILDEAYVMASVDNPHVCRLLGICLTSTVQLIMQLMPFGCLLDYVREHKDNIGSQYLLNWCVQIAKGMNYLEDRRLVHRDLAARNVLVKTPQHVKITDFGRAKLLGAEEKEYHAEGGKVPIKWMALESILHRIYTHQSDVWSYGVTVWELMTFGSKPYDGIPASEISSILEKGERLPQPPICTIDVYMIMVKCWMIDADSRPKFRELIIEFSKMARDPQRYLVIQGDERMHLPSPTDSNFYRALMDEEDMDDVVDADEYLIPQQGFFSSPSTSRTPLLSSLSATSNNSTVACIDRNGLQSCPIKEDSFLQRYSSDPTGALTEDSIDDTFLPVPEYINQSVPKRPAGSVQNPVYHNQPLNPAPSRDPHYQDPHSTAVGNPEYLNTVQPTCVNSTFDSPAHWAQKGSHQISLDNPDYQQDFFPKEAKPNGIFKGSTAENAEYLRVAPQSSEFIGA

T1 sequence (P00533 25-1210): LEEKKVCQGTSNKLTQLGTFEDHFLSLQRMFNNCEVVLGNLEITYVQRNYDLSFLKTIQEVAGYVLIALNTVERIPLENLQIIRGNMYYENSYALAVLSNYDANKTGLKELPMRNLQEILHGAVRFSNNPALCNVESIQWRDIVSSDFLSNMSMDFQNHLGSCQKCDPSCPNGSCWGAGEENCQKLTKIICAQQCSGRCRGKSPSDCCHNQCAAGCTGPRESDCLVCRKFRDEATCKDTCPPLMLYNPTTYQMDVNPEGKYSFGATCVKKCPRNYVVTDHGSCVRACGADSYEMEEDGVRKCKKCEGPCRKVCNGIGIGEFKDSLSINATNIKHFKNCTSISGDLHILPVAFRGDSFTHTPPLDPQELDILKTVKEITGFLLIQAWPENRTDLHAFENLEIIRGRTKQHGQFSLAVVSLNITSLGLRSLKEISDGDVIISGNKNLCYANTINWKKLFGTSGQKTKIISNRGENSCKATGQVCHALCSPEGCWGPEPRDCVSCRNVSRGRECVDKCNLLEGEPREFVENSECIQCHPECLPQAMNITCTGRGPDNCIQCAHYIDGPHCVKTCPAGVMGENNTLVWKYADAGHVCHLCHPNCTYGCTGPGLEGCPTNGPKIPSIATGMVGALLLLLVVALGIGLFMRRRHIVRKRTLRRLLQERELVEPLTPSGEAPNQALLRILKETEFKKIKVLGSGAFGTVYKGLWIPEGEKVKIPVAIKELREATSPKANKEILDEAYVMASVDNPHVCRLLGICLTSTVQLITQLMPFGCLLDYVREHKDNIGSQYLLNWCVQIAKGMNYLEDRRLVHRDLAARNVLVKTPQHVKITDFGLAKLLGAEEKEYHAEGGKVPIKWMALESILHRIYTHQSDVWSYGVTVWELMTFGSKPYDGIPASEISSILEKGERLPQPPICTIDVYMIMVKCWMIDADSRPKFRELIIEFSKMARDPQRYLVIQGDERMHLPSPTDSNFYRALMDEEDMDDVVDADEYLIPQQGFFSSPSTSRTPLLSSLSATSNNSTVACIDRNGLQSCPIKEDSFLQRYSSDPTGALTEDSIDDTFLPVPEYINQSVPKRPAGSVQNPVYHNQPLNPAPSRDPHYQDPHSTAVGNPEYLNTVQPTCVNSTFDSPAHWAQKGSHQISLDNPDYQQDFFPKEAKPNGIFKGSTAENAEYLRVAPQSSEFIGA

IC50 (EGFR WT) [nM] | GI50 [2] [nM] | GI50 [3] [nM] | GI50 (A431 (EGFR WT)) [nM] | IC50 (EGFR L858R/T790M) [nM] | Structure (SMILES) | mBWL (maximum body weight loss) ([1]; 70 mg/kg) [%] | weight gain ([1]; in therapeutically equivalent dose (70 mg/kg), NCI-H1975 xenografted nude mice) [%] | IR (tumor growth inhibition rate) (NCI-H1975 cancer cells; 70 mg/kg) [%] | mBWL (maximum body weight loss) ([1]; 50 mg/kg) [%] | IR (tumor growth inhibition rate) (NCI-H1975 cancer cells; 50 mg/kg) [%]
> 1000 | 50 to 100 | 50 to 100 | > 1000 | < 50 | C=CC(=O)Nc1cccc(Oc2nc(Nc3ccc(N4CCN(C)CC4)cc3OC)nc3ccsc23)c1 [Example 2] | −7.6 | 7.6 | 75 | – | –
– | – | – | – | – | CN(C)C/C=C/C(=O)Nc1cc2c(Nc3ccc(F)c(Cl)c3)ncnc2cc1O[C@H]1CCOC1 [BIBW2992, Afatinib, reference compound] | – | – | – | 9.1 | 77

From USRE46511E1, “Fused pyrimidine derivatives for inhibition of tyrosine kinase activity” (HANMI SCIENCE CO., LTD., priority 2010, dated 2017)
